Measurements published in patent US20240199572A1, “COMPOUNDS, COMPOSITIONS, AND METHODS FOR TREATING TYPE 2 DIABETES AND DEMENTIA” (THE BOARD OF TRUSTEES OF THE UNIVERSITY OF ILLINOIS, priority 2021, published 2024).

Columns and labels:
CD1 mice = assay: CD1 mice, three daily p.o. treatments, LXR agonist adverse effects; format: in vivo, mouse; settings: 10 mg/kg p.o., three days
From the text: Neutrophil Counts. […] After final dose, blood samples were run on an Advia 120 analyzer (Bayer) for neutrophil counts.

J774 cells = assay: siRNA knockdown of LXRα/LXRβ in J774 cells; format: cell-based
Description: siRNA Knockdown. J774 cells were plated in 24-well plates in serum-containing medium, to which an additional 100 μL of medium containing 10 pmol of siRNA and 3 μL of LIPOFECTAMINE® RNAIMAX® transfection reagent (Thermo Fisher Scientific) were added. After 24 hours, serum-free medium containing 10 μM C12-57 or vehicle control was added to each well for 24 hours. Cells were lysed and analyzed per qPCR and immunoblot procedures above. siRNAs used: Thermo Fisher 188584 (Nr1h3 silencer), 186947 (Nr1h2 silencer), and AM4611 (Silencer Negative Control siRNA #1).

SMILES: CCOC(=O)c1cccc(NC(=O)c2sc(Cl)cc2S(=O)(=O)N(C)c2ccc(OCC)c(OCC)c2)c1 [CL2-57, ethyl 3-(5-chloro-3-(N-(3,4-diethoxyphenyl)-N-methylsulfamoyl)thiophene-2-carboxamido) benzoate]
- Circulating neutrophil levels (CD1 mice): did not affect
- Plasma TG (CD1 mice): did not affect
- Plasma cholesterol (CD1 mice): did not affect
- ABCA1 induction under LXR siRNA knockdown (J774 cells; 10 μM, J774): mediated by LXRβ
- Induction of Abcg1 under LXR siRNA knockdown (J774 cells; J774): reduced by LXRβ knockdown
- Induction of Slc2a1 (GLUT1) under LXR siRNA knockdown (J774 cells; J774): reduced by LXRβ knockdown
- Irs1 increases under LXR siRNA knockdown (J774 cells; J774): not affected by loss of either LXR isoform
- LXR target gene Apoe (J774 cells; J774 cells): not significantly affected
